Data from ChEMBL document CHEMBL5634189, “Synthesis and in Vitro Evaluation of CAPE Derivatives as Ferroptosis Inducers in Triple Negative Breast Cancer” (ACS Med Chem Lett, 2024).
Active and inactive are the calls of the source. The rule behind the calls is not given here. Where a SMILES comes first, the peptide text is derived from it. The star is where a group is joined. Cbz = O=C(OCc1ccccc1)*; CH2F = FC*

What was measured:
[1] = system: MDA-MB-231; test: Induction of ferroptosis in human MDA-MB-231 cells assessed as reduction in cell viability at 10 to 50 uM incubated for 24 hrs by MTT assay; assay type: functional, cell-based; conditions: dose 10-50 µM
[2] = target: T1, Heme oxygenase 1 (Homo sapiens) (UniProt P09601); test: Induction of HO-1 enzymatic activity in human MDA-MB-231 cells assessed as increase in bilirubin formation at 10 uM incubated for 18 hrs in presence of NADPH by double-beam spectrophotometer analysis; assay type: cell-based; conditions: filed as activator
T1 sequence (whole entry): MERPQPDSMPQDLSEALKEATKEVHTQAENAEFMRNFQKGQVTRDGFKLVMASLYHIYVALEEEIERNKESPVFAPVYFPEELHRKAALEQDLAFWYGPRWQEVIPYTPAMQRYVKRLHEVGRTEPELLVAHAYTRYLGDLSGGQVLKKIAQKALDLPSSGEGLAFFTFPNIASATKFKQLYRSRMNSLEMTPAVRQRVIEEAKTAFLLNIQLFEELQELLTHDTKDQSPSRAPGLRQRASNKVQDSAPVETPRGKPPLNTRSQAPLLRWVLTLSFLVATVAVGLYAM

[3] = system: MDA-MB-231; test: Induction of ferroptosis in human MDA-MB-231 cells assessed as increase in intracellular Fe2+ level at 10 to 50 uM incubated for 18 hrs by colorimetric assay; assay type: functional, cell-based; conditions: dose 10-50 µM
[4] = system: MDA-MB-231; test: Cytotoxicity against human MDA-MB-231 cells assessed as reduction in cell viability at 50 uM incubated for 48 hrs by MTT assay; assay type: functional, cell-based
[5] = system: MDA-MB-231; test: Induction of ferroptosis in human MDA-MB-231 cells assessed as decrease in GSH content at 10 to 50 uM incubated for 24 hrs by spectrophotometric assay; assay type: functional, cell-based; conditions: dose 10-50 µM
[6] = system: MDA-MB-231; test: Cytotoxicity against human MDA-MB-231 cells assessed as reduction in cell viability at 50 uM incubated for 48 hrs in presence of ferrostatin-1 by MTT assay; assay type: functional, cell-based
[7] = system: MDA-MB-231; test: Cytotoxicity against human MDA-MB-231 cells assessed as reduction in cell viability at 50 uM incubated for 48 hrs in presence of Z-VAD-FMK by MTT assay; assay type: functional, cell-based
[8] = system: MDA-MB-231; test: Induction of ferroptosis in human MDA-MB-231 cells assessed as increase IL-6 level at 50 uM incubated for 5 to 18 hrs by ELISA analysis; assay type: functional, cell-based; conditions: time 5-18 hrs
[9] = system: Cell membrane; test: Induction of mitochondrial membrane dysfunction in human MDA-MB-231 cells assessed as decrease in red fluorescence intensity incubated for 6 hrs by JC-1 staining based fluorescence microscopic analysis; assay type: cell membranes
[10] = system: MDA-MB-231; test: Induction of ROS production in human MDA-MB-231 cells assessed as increase in fluorescence intensity measured for 1 to 6 hrs; assay type: functional, cell-based; conditions: time 1-6 hrs
[11] = system: Cell membrane; test: Induction of mitochondrial membrane dysfunction in human MDA-MB-231 cells assessed as increase in green fluorescence intensity incubated for 6 hrs by JC-1 staining based fluorescence microscopic analysis; assay type: cell membranes
[12] = system: MDA-MB-231; test: Upregulation of HO-1 expression in human MDA-MB-231 cells at 10 uM incubated for 18 hrs by ELISA analysis; assay type: functional, cell-based
[13] = system: MDA-MB-231; test: Induction of ferroptosis in human MDA-MB-231 cells assessed as reduction in cell viability at 50 uM incubated for 48 hrs in presence of ferrostatin-1 by MTT assay; assay type: functional, cell-based
[14] = system: MDA-MB-231; test: Induction of ferroptosis in human MDA-MB-231 cells assessed as reduction in GSH content at 50 uM incubated for 20 mins in presence of ferrostatin-1 by spectrophotometric assay; assay type: functional, cell-based
[15] = system: MDA-MB-231; test: Induction of ferroptosis in human MDA-MB-231 cells assessed as effect on IL-6 level at 50 uM incubated for 5 to 18 hrs in presence of ferrostatin-1 by ELISA analysis; assay type: functional, cell-based; conditions: time 5-18 hrs
[16] = system: MDA-MB-231; test: Induction of ferroptosis in human MDA-MB-231 cells assessed as increase in lipid hydroperoxide level at 50 uM incubated for 30 mins in presence of ferrostatin-1; assay type: functional, cell-based

Row | Structure (SMILES) | Activity [2] | Activity [1] | also measured
1 | O=C(/C=C/c1ccccc1)OCCc1c[nH]c2ccccc12 | Active | Active | Activity [9]: Active; Activity [10]: Active; Activity [11]: Active; Activity [12]: Active; Activity [13]: Active; Activity [14]: Active; Activity [15]: inactive; Activity [16]: Active
2 | CCOC(=O)c1ccc(NC2CCCCC2)c(N)c1 | – | – | Activity [4]: Active
3 | O=C(/C=C/c1ccc(O)c(O)c1)OCCc1ccc2c(c1)OCO2 | Active | Active | –
4 | CC(C)[C@H](NC(=O)OCc1ccccc1)C(=O)N[C@@H](C)C(=O)N[C@@H](CC(=O)O)C(=O)CF (Cbz-Val-Ala-Asp-CH2F) | – | – | Activity [4]: Active
5 | COc1ccc(CCOC(=O)/C=C/c2ccc(O)c(O)c2)c(OC)c1 | Active | Active | –
6 | COc1cc(CCOC(=O)/C=C/c2ccc(O)c(O)c2)cc(OC)c1 | Active | Active | Activity [13]: Active
7 | COc1ccc(CCOC(=O)/C=C/c2ccc(O)c(O)c2)cc1OC | Active | Active | Activity [13]: Active

Continued, in another order:

Row | Activity [2] | Structure (SMILES) | Activity [1] | also measured
8 | Active | COc1ccc(OC)c(CCOC(=O)/C=C/c2ccc(O)c(O)c2)c1 | Active | –
9 | Active | O=C(/C=C/c1ccc(O)c(O)c1)OCCc1c[nH]c2ccccc12 | Active | –
10 | Active | O=C(/C=C/c1ccc(O)c(O)c1)OCCc1ccccc1 | – | Activity [3]: Active; Activity [4]: Active; Activity [5]: Active; Activity [6]: Active; Activity [7]: Active; Activity [8]: Active
11 | Active | COc1ccc(CCOC(=O)/C=C/c2ccc(O)c(O)c2)cc1 | Active | –
12 | Active | COc1ccc(CCOC(=O)/C=C/c2ccccc2)cc1OC | Active | –
